Laboratory results as given in patent US6576266B1, “Plant extract based on glycerides, a method for the preparation of this extract and a cosmetic composition containing the same” (Sodic SA, priority 1999, dated 2003).

Experiments:
[1] = target: T1, elastase of human leukocytes (EHL) (Homo sapiens, UniProt P08246); experiment: Inhibitory action against elastase (synthetic substrate, spectrophotometry at 405 nm); assay type: biochemical
T1 sequence (P08246 30-267): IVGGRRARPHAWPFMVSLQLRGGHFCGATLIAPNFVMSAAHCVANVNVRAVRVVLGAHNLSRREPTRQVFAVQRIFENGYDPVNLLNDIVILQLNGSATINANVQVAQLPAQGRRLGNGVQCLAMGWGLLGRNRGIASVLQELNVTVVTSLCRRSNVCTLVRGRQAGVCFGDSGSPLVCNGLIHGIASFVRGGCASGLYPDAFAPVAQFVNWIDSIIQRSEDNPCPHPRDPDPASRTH
Description: It was of interest to investigate the inhibitory action against elastase by the powder extract of the invention and to compare it with that of ceramide 3 alone.
The inhibitory action of the powder extract of the invention against EHL was examined in an aqueous solution of a Tris-HCl buffer, using N-methoxysuccinyl-alanyl-alanyl-prolyl-valyl-para-nitroanilide as a synthetic substrate.
The kinetics of the reaction were determined by spectrophotometry at 405 nm, enabling the measurement of the release of para-nitroanilide, which is a coloured product. The percent inhibitory action of the preparation against the elastase was determined by comparison with a reference curve (hydrolysis of the substrate in the absence of an inhibitor).

[2] = tested on: reduction of cytochrome c (xanthin oxidase); experiment: Radical scavenging: slowing-down of the reduction of cytochrome c (Fridovitch and McCord); assay type: biochemical; conditions: 0.6315 mg/ml, phosphate buffer pH 7.8, 25° C.
Excerpt: The experimental method is based on the procedure developed in 1973 by Fridovitch and McCord for SOD (J. Biol. Chem. 248, 2648).
The determination of the radical scavenging properties is based on the measurement of the inhibition or of the slowing-down of the reduction of cyto-chrome c by the product investigated, by comparison with the effect exerted by xanthin oxidase. The formation of reduced cytochrome c is monitored by spectrophotometry at 550 nm.
In these tests, a plant extract powder of the invention is used at a concentration of 1.5 mg/ml in a phosphate buffer pH 7.8 at 25° C.
Furthermore, an additional test was carried out with Dgdg alone, in the same conditions as above, but using the Fluka 36975 product having a purity of 95%.

In the case of “2,3-di-O-(fatty acid acyl)-1-O-[6′-O-α-D-galactopyranosyl-β-galactopyranosyl]-D-glycerine [Dgdg]”, the “Inhibitory activity against elastase (in words)” value [1] is reported as “practically no inhibitory activity” and the “Slowing-down of the reduction of cytochrome c” value [2] is reported as 36.1%.
